Measured values taken from ChEMBL document CHEMBL1201862, “PubChem BioAssay data set” (2004).
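Briefly, cells in 96-well plates were exposed to five compound concentrations for 48 h, and endpoints were estimated by linear interpolation. Here, GI50 denotes the concentration required for 50% inhibition of growth.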 Calls of active or inactive are those of the source. Cut-off read from the data, not from the text of the source: active = GI50 up to about 1.1 µM and inactive = higher.

Legend:
Assay in all cases: NCI-60 cell line screen, 48 h
HOP-18 = system: HOP-18
HT-29 = system: HT-29
SN12C = system: SN12C
SF-539 = system: SF-539
KM12 = system: KM12
M19-MEL = system: M19-MEL
IGROV-1 = system: IGROV-1
HL-60 = system: HL-60
SK-MEL-28 = system: SK-MEL-28
A549 = system: A549
UO-31 = system: UO-31
XF498 = system: XF498
RXF 393 = system: RXF 393
M14 = system: M14
CAKI-1 = system: CAKI-1
OVCAR-3 = system: OVCAR-3
SK-MEL-5 = system: SK-MEL-5
NCI-H226 = system: NCI-H226
EKVX = system: EKVX
SNB-19 = system: SNB-19
NCI-H460 = system: NCI-H460
NCI-H522 = system: NCI-H522
ACHN = system: ACHN
LXFL 529 = system: LXFL 529
UACC-257 = system: UACC-257
SW-620 = system: SW-620
COLO 205 = system: COLO 205
KM-20L2 = system: KM-20L2
SR = system: SR
CCRF-CEM = system: CCRF-CEM
K562 = system: K562
NCI-H23 = system: NCI-H23
RXF 631 = system: RXF 631
SK-OV-3 = system: SK-OV-3
LOX IMVI = system: LOX IMVI
Malme-3M = system: Malme-3M
SF-295 = system: SF-295
SNB-75 = system: SNB-75
SNB-78 = system: SNB-78
HCT-15 = system: HCT-15
SK-MEL-2 = system: SK-MEL-2
HCC 2998 = system: HCC 2998
MOLT-4 = system: MOLT-4
HCT-116 = system: HCT-116
OVCAR-5 = system: OVCAR-5
HOP-62 = system: HOP-62
DLD-1 = system: DLD-1
UACC-62 = system: UACC-62
RPMI-8226 = system: RPMI-8226
U-251 = system: U-251
SF-268 = system: SF-268
OVCAR-4 = system: OVCAR-4
OVCAR-8 = system: OVCAR-8
DMS-114 = system: DMS-114
786-0 = system: 786-0

Q: What does the source list for `N#Cc1ccc(C2OCC3CC=CCC3CO2)cc1` (stereo not given)?
A: GI50 (HOP-18): > 100 µM (inactive); GI50 (HT-29): 44.7 µM (inactive); GI50 (SN12C): > 100 µM (inactive); GI50 (SF-539): > 100 µM (inactive); GI50 (KM12): 61.4 µM (inactive); GI50 (M19-MEL): 84.7 µM (inactive); GI50 (IGROV-1): > 100 µM (inactive); GI50 (HL-60): 30.7 µM (inactive); GI50 (SK-MEL-28): 78.5 µM (inactive); GI50 (A549): 70 µM (inactive); GI50 (UO-31): > 100 µM (inactive); GI50 (XF498): > 100 µM (inactive); GI50 (RXF 393): 54.3 µM (inactive); GI50 (M14): 52.2 µM (inactive); GI50 (CAKI-1): > 100 µM (inactive); GI50 (OVCAR-3): 91 µM (inactive); GI50 (SK-MEL-5): 21.1 µM (inactive); GI50 (NCI-H226): > 100 µM (inactive); GI50 (EKVX): 31.2 µM (inactive); GI50 (SNB-19): > 100 µM (inactive); GI50 (NCI-H460): 68.7 µM (inactive); GI50 (NCI-H522): 18.9 µM (inactive); GI50 (ACHN): 93.5 µM (inactive); GI50 (LXFL 529): 47.1 µM (inactive); GI50 (UACC-257): 42.7 µM (inactive); GI50 (SW-620): > 100 µM (inactive); GI50 (COLO 205): 80.9 µM (inactive); GI50 (KM-20L2): > 100 µM (inactive); GI50 (SR): 36.1 µM (inactive); GI50 (CCRF-CEM): 44.7 µM (inactive); GI50 (K562): 30.9 µM (inactive); GI50 (NCI-H23): 36.3 µM (inactive); GI50 (RXF 631): 41.7 µM (inactive); GI50 (SK-OV-3): > 100 µM (inactive); GI50 (LOX IMVI): 94.6 µM (inactive); GI50 (Malme-3M): > 100 µM (inactive); GI50 (SF-295): 48.1 µM (inactive); GI50 (SNB-75): 64.9 µM (inactive); GI50 (SNB-78): > 100 µM (inactive); GI50 (HCT-15): 61.2 µM; GI50 (SK-MEL-2): > 100 µM (inactive); GI50 (HCC 2998): 59.4 µM (inactive); GI50 (MOLT-4): 2.97 µM (inactive); GI50 (HCT-116): 65.5 µM (inactive); GI50 (OVCAR-5): 71.9 µM (inactive); GI50 (HOP-62): > 100 µM (inactive); GI50 (DLD-1): 55 µM (inactive); GI50 (UACC-62): 80.7 µM (inactive); GI50 (RPMI-8226): 42.2 µM (inactive); GI50 (U-251): 76.7 µM (inactive); GI50 (SF-268): > 100 µM (inactive); GI50 (OVCAR-4): > 100 µM (inactive); GI50 (OVCAR-8): 83.4 µM (inactive); GI50 (DMS-114): 61.7 µM (inactive); GI50 (786-0): > 100 µM (inactive)
